Laboratory results taken from ChEMBL document CHEMBL1158404, “Antifungal activity of alkyl and heterocyclic aza-derivatives of gossypol as well as their complexes with NaClO4 against Fusarium oxysporum f. sp. lupini” (2009).

Assays:
Type in all cases: functional
Fusarium oxysporum [1] = experiment: Antifungal activity against Fusarium oxysporum f. sp. lupini at 20 ug/ml after 48 hrs
Fusarium oxysporum [2] = experiment: Antifungal activity against Fusarium oxysporum f. sp. lupini at 20 ug/ml after 96 hrs
Fusarium oxysporum [3] = experiment: Antifungal activity against Fusarium oxysporum f. sp. lupini at 20 ug/ml after 144 hrs
Fusarium oxysporum [4] = experiment: Antifungal activity against Fusarium oxysporum f. sp. lupini at 20 ug/ml after 192 hrs
Fusarium oxysporum [5] = experiment: Antifungal activity against Fusarium oxysporum f. sp. lupini at 20 ug/ml after 192 hrs relative to control; details: read-out: GI
Fusarium oxysporum [6] = experiment: Antifungal activity against Fusarium oxysporum f. sp. lupini at 1 ug/ml after 48 hrs
Fusarium oxysporum [7] = experiment: Antifungal activity against Fusarium oxysporum f. sp. lupini at 1 ug/ml after 96 hrs
Fusarium oxysporum [8] = experiment: Antifungal activity against Fusarium oxysporum f. sp. lupini at 1 ug/ml after 144 hrs
Fusarium oxysporum [9] = experiment: Antifungal activity against Fusarium oxysporum f. sp. lupini at 1 ug/ml after 192 hrs
Fusarium oxysporum [10] = experiment: Antifungal activity against Fusarium oxysporum f. sp. lupini at 1 ug/ml after 192 hrs relative to control; details: read-out: GI
Fusarium oxysporum [11] = experiment: Antifungal activity against Fusarium oxysporum f. sp. lupini at 0.5 ug/ml after 48 hrs
Fusarium oxysporum [12] = experiment: Antifungal activity against Fusarium oxysporum f. sp. lupini at 0.5 ug/ml after 96 hrs
Fusarium oxysporum [13] = experiment: Antifungal activity against Fusarium oxysporum f. sp. lupini at 0.5 ug/ml after 144 hrs
Fusarium oxysporum [14] = experiment: Antifungal activity against Fusarium oxysporum f. sp. lupini at 0.5 ug/ml after 192 hrs
Fusarium oxysporum [15] = experiment: Antifungal activity against Fusarium oxysporum f. sp. lupini at 0.5 ug/ml after 192 hrs relative to control; details: read-out: GI
Fusarium oxysporum [16] = experiment: Antifungal activity against Fusarium oxysporum f. sp. lupini at 0.1 ug/ml after 48 hrs
Fusarium oxysporum [17] = experiment: Antifungal activity against Fusarium oxysporum f. sp. lupini at 0.1 ug/ml after 96 hrs
Fusarium oxysporum [18] = experiment: Antifungal activity against Fusarium oxysporum f. sp. lupini at 0.1 ug/ml after 144 hrs
Fusarium oxysporum [19] = experiment: Antifungal activity against Fusarium oxysporum f. sp. lupini at 0.1 ug/ml after 192 hrs
Fusarium oxysporum [20] = experiment: Antifungal activity against Fusarium oxysporum f. sp. lupini at 0.1 ug/ml after 192 hrs relative to control; details: read-out: GI

CCCCOCCOCCN/C=C1\C(=O)C(O)=C(C(C)C)c2cc(C)c(-c3c(C)cc4c(c3O)/C(=C/NCCOCCOCCCC)C(=O)C(O)=C4C(C)C)c(O)c21
Radial growth inhibition of fungi (Ā) (mm) (Fusarium oxysporum [1]): 13.5 mm | Radial growth inhibition of fungi (Ā) (mm) (Fusarium oxysporum [2]): 23.63 mm | Radial growth inhibition of fungi (Ā) (mm) (Fusarium oxysporum [3]): 33.25 mm | Radial growth inhibition of fungi (Ā) (mm) (Fusarium oxysporum [4]): 43.63 mm | inhibition of growth at 20 µg/mL (Fusarium oxysporum [5]): 26.4% | Radial growth inhibition of fungi (Ā) (mm) (Fusarium oxysporum [6]): 14.25 mm | Radial growth inhibition of fungi (Ā) (mm) (Fusarium oxysporum [7]): 23.5 mm | Radial growth inhibition of fungi (Ā) (mm) (Fusarium oxysporum [8]): 33.88 mm | Radial growth inhibition of fungi (Ā) (mm) (Fusarium oxysporum [9]): 44 mm | inhibition of growth at 1 µg/mL (Fusarium oxysporum [10]): 25.7% | Radial growth inhibition of fungi (Ā) (mm) (Fusarium oxysporum [11]): 15.13 mm | Radial growth inhibition of fungi (Ā) (mm) (Fusarium oxysporum [12]): 24.63 mm | Radial growth inhibition of fungi (Ā) (mm) (Fusarium oxysporum [13]): 34.75 mm | Radial growth inhibition of fungi (Ā) (mm) (Fusarium oxysporum [14]): 45.13 mm | inhibition of growth at 0.5 µg/mL (Fusarium oxysporum [15]): 23.8% | Radial growth inhibition of fungi (Ā) (mm) (Fusarium oxysporum [16]): 16.38 mm | Radial growth inhibition of fungi (Ā) (mm) (Fusarium oxysporum [17]): 25.63 mm | Radial growth inhibition of fungi (Ā) (mm) (Fusarium oxysporum [18]): 36.75 mm | Radial growth inhibition of fungi (Ā) (mm) (Fusarium oxysporum [19]): 49.25 mm | inhibition of growth at 0.1 µg/mL (Fusarium oxysporum [20]): 16.9%
